{
  "source": "patent US5401760A",
  "about": "“Heterocyclic compounds” (Ono Pharmaceutical Co., Ltd., priority 1988, dated 1995)",
  "note": "Where a SMILES comes first, the peptide text is derived from it.",
  "data": [
    {"tested_on": "prolyl endopeptidase", "assay": "not given", "details": "literature, J. Neurochem., 41, 69 (1983); cited from earlier work", "values": [
      {"smiles": "O=C(NCC(=O)N1CCC[C@H]1C(=O)CCl)OCc1ccccc1", "note": "[N-benzyloxycarbonyl-glycyl-L-prolyl-chloromethane] (HELM PEPTIDE1{[O=C(OCc1ccccc1)[*:2]].G.P.[ClC[*:1]]}$$$$V2.0)", "inhibit prolyl endopeptidase": "strongly inhibit"}
    ]},
    {"target": "T1, prolyl endopeptidase (Bos taurus, UniProt Q9XTA2)", "T1 construct": "prolyl endopeptidase which was purified from bovine brain; from tissue; host or cells: bovine brain (purified enzyme)", "T1 sequence (Q9XTA2 whole entry)": "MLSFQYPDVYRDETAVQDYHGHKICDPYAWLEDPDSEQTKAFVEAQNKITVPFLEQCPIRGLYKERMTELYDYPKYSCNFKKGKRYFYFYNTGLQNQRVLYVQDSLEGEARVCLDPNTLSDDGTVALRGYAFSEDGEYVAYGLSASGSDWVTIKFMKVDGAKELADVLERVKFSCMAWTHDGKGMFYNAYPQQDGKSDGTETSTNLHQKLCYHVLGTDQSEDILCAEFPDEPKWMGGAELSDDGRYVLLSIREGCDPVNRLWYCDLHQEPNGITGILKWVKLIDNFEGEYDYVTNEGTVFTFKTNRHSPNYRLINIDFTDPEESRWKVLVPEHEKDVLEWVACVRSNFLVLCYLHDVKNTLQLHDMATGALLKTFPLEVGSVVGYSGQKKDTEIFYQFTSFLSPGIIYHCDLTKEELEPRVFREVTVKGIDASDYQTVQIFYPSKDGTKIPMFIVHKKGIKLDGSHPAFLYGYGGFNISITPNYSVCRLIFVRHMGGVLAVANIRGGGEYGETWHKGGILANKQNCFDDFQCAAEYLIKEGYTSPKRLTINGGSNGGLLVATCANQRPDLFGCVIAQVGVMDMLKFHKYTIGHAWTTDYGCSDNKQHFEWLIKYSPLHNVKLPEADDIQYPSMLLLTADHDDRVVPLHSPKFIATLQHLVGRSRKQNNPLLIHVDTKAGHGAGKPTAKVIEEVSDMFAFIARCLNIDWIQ", "assay": "Prolyl endopeptidase inhibitory activity in vitro", "assay_type": "biochemical", "details": "enzyme purified from bovine brain, pH 7.5, 37° C., substrate N-benzyloxycarbonyl-glycyl-prolyl-p-nitroanilide, read-out: Concentration for 50% inhibition IC50", "protocol": "For example, in a standard laboratory test, results in the following were given.\nProlyl endopeptidase inhibitory activity in vitro\nInhibitory activity of prolyl endopeptidase in vitro was measured by the following test system.\nA mixed solution of 20 mM tris-HCl buffer (pH 7.5; 935 μl; containing 10 mM EDTA and 10 mM mercaptoethanol), a solution of a compound of the present invention in DMSO (10 μl) and a solution of prolyl endopeptidase which was purified from bovine brain (0.13 unit ml; prepared by the method described in J. Biochem., 94, 1179 (1983) ) in tris-HCl buffer (15 μl) was preincubated for 15 mins at 37° C.\nTo the solution, 5 mM of N-benzyloxycarbonyl-glycyl-prolyl-p-nitroanilide (40 μl) in a mixture of 40% dioxane-60% water was added. The solution was incubated for 1 min at the same temperature.\nOptical absorption (a1) at 405 nm of the solution, and optical absorption (a2) at 405 nm of the solution after more 30 mins' incubation at 37° C. were measured.\nOptical absorptions (b1 and b2) of the solutions using DMSO instead of the solution of the compound of the present invention were also measured.\nInhibitory ratio was calculated by the following expression and IC50 (required concentration for 50% inhibition) was obtained (See Protein, Nucleic acid and Enzyme 25(6), 513, 1980.). [formula] Toxicity", "units": {"IC50": "nM"}, "values": [
      {"smiles": "CCOC(=O)C(=O)[C@@H]1CCCN1C(=O)C(CCCCCc1ccccc1)C(C)C", "note": "(mixture of isomers) [2 (h), 2-[(2S)-1-[(2RS)-2-isopropyl-7-phenylheptanoyl]pyrrolidin-2-yl]-2-oxoacetic acid ethyl ester]", "IC50": 17},
      {"smiles": "CCC(O)[C@@H]1CSCN1C(=O)C1CCCCN1C(=O)CCc1ccccc1", "note": "(mixture of isomers) [15 (a), (1RS)-1-[(4R)-3-[1-(3-phenylpropanoyl)piperidin-2-ylcarbonyl]thiazolidin-4-yl]propan-1-ol]", "IC50": 120},
      {"smiles": "CN(Cc1ccccc1)C(=O)CCC(=O)N1CCC[C@H]1C(O)C(=O)OCc1ccccc1", "note": "(mixture of isomers) [Example 6, (2RS)-2-[(2S)-1-[3-(N-benzyl-N-methylcarbamoyl)propanoyl]pyrrolidin-2-yl]-2-hydroxyacetic acid benzyl ester]", "IC50": 3000},
      {"smiles": "CCOC(=O)C(F)(F)C(O)[C@@H]1CCCN1C(=O)CCC(=O)N(C)Cc1ccccc1", "note": "(mixture of isomers) [Example 12, (3RS)-3-[(2S)-1-[3-(N-benzyl-N-methylcarbamoyl)propanoyl]pyrrolidin-2-yl]-3-hydroxy-2,2-difluoropropionic acid ethyl ester]", "IC50": 69000},
      {"smiles": "CCC(O)[C@@H]1CCCN1C(=O)CCC(=O)N(C)Cc1ccccc1", "note": "(mixture of isomers) [Example 15, (1RS)-1-[(2S)-1-[3-(N-benzyl-N-methylcarbamoyl)propanoyl]pyrrolidin-2-yl]-propan-1-ol]", "IC50": 1500},
      {"smiles": "CCOC(=O)C(=O)[C@@H]1CCCN1C(=O)CCC(=O)NC1c2ccccc2-c2ccccc21", "note": "[2 (b), 2-[(2S)-1-[3-[N-(9-fluorenyl)carbamoyl]propanoyl]pyrrolidin-2-yl]-2-oxoacetic acid ethyl ester]", "IC50": 1.8},
      {"smiles": "CCOC(=O)C(=O)[C@@H]1CCCN1C(=O)CCC(=O)N(Cc1ccc(C(F)(F)F)cc1)c1ccccc1", "note": "[2 (d), 2-[(2S)-1-[3-[N-(4-trifluoromethylphenylmethyl)-N-phenylcarbamoyl]propanoyl]pyrrolidin-2-yl]-2-oxoacetic acid ethyl]", "IC50": 0.85},
      {"smiles": "CCOC(=O)C(=O)[C@@H]1CCCN1C(=O)CCC(=O)N(Cc1ccccc1)c1ccccc1", "note": "[2 (g), 2-[(2S)-1-[3-(N-benzyl-N-phenylcarbamoyl)propanoyl]pyrrolidin-2-yl]-2-oxoacetic acid ethyl ester]", "IC50": 1.7},
      {"smiles": "CCOC(=O)C(=O)[C@@H]1CCCN1C(=O)CCC(=O)NCc1ccc(Cl)cc1Cl", "note": "[2 (l), 2-[(2S)-1-[3-[N-(2,4-dichloro-phenylmethyl)carbamoyl]propanoyl]pyrrolidin-2-yl]-2-oxoacetic acid ethyl ester]", "IC50": 1.8},
      {"smiles": "O=C(CCCc1ccccc1)N1CSC[C@H]1C(=O)N1CSC[C@H]1C(O)c1ccccc1", "note": "(stereo partly drawn) [17 (a), (1RS)-1-phenyl-1-[(4R)-3-[(4R)-3-(4-phenylbutanoly)thiazolidin-4-ylcarbonyl]thiazolidin-4-yl]methanol]", "IC50": 180},
      {"smiles": "CCOC(=O)C(=O)[C@@H]1CCCN1C(=O)CCC(=O)N(C)Cc1ccccc1", "note": "[Example 2, 2-[(2S)-1-[3-(N-benzyl-N-methylcarbamoyl)propanoyl]pyrrolidin-2-yl]-2-oxoacetic acid ethyl ester]", "IC50": 3},
      {"smiles": "CN(Cc1ccccc1)C(=O)CCC(=O)N1CCC[C@H]1C(=O)C(=O)OCc1ccccc1", "note": "[Example 7, 2-[(2S)-1-[3-(N-benzyl-N-methylcarbamoyl)propanoyl]pyrrolidin-2-yl]-2-oxoacetic acid benzyl ester]", "IC50": 1.2},
      {"smiles": "CN(Cc1ccccc1)C(=O)CCC(=O)N1CCC[C@H]1C(=O)C(F)(F)F", "note": "[Example 9, 1-[(2S)-1-[3-(N-benzyl-N-methylcarbamoyl)propanoyl]pyrrolidin-2-yl]-2,2,2-trifluoroethan-1-one]", "IC50": 23},
      {"smiles": "CCOC(=O)C(F)(F)C(=O)[C@@H]1CCCN1C(=O)CCC(=O)N(C)Cc1ccccc1", "note": "[Example 13, 3-[(2S)-1-[3-(N-benzyl-N-methylcarbamoyl)propanoyl]pyrrolidin-2-yl]-3-oxo-2,2-difluoropropionic acid ethyl ester]", "IC50": 100},
      {"smiles": "CN(Cc1ccccc1)C(=O)CCC(=O)N1CCC[C@H]1C1OCCO1", "note": "[Example 19, 2-[(2S)-1-[3-(N-benzyl-N-methylcarbamoyl)propanoyl]pyrrolidin-2-yl]-1,3-dioxolane]", "IC50": 14000}
    ]}
  ]
}
